Results on 27 molecules are retold here after the supplement of paper PMC12613149.

Molecules are shown by their SMILES. Structures can show the parent of a compound that is named as a salt.

Data set [1] can be described thus: collision cross section (TIMS, N2 drift gas) of the primary ion; higher = larger gas-phase ion size.
Data set [2] is described as follows: reversed-phase LC retention time (C18, 15 min MeOH gradient); higher = more hydrophobic / later elution.
Setting [3] is: ionization mode: ESI+, ion species: [M+H]+.
Setting [4] is: ionization mode: ESI-, ion species: [M-H]-.
[5] abbreviates: ionization mode: ESI+, ion species: [M]+.

Turning to `O=C(Nc1ccccc1-c1ccc(Cl)cc1)c1cccnc1Cl` [Boscalid], in data set [1] (setting [3]), the collision cross section is 177.19 Å². Moreover, the “reversed-phase LC retention time” value in data set [2] (setting [3]) is 14.2 min.
Turning to `CCCCOP(=O)(O)OCCCC` [Di-n-butyl phosphate], the collision cross section in data set [1] (setting [4]) was determined as 151.01 Å². In addition, the “reversed-phase LC retention time” value in data set [2] (setting [4]) is 11.6 min.
For `CC[C@H]1OC(=O)[C@H](C)[C@@H](O[C@H]2C[C@@](C)(OC)[C@@H](O)[C@H](C)O2)[C@H](C)[C@@H](O[C@@H]2O[C@H](C)C[C@H](N(C)C)[C@H]2O)[C@](C)(O)C[C@@H](C)C(=O)[C@H](C)[C@@H](O)[C@]1(C)O` [Erythromycin], the collision cross section in data set [1] (setting [3]) is on record as 259.69 Å². The “reversed-phase LC retention time” value in data set [2] (setting [3]) was 13 min.
For the molecule `CC(C)NCC(O)COc1ccc(CC(=O)O)cc1` (stereo not drawn) [Metoprolol acid], the collision cross section in data set [1] (setting [3]) was 166.24 Å². In addition, the “reversed-phase LC retention time” value in data set [2] (setting [3]) is 7.62 min.
As for `CCC1=C(C)CN(C(=O)NCCc2ccc(S(=O)(=O)NC(=O)NC3CCC(C)CC3)cc2)C1=O` (stereo not drawn) [Glimepiride], the collision cross section in data set [1] (setting [3]) was 216.66 Å²; in data set [1] (setting [4]) it was 215.02 Å². Besides, the figures for the “reversed-phase LC retention time” value in data set [2] (setting [3]) and in data set [2] (setting [4]) were 15.3 min and 14.3 min, respectively.
In the case of `CCCc1nc(C)c2c(=O)nc(-c3cc(S(=O)(=O)N4CCN(CC)CC4)ccc3OCC)[nH]n12` [Vardenafil], the collision cross section in data set [1] (setting [3]) was 227.75 Å²; in data set [1] (setting [4]), 219.66 Å². Also, the “reversed-phase LC retention time” value is 12 min in data set [2] (setting [3]) and 14.9 min in data set [2] (setting [4]).
With `CCN(CC)c1ccccc1` [Diethylphenylamine], the collision cross section in data set [1] (setting [3]) is listed as 129.02 Å². Also, the “reversed-phase LC retention time” value in data set [2] (setting [3]) amounted to 6.93 min.
As to `Oc1ccc(Cl)cc1Cc1cc(Cl)ccc1O` [Dichlorophen], in data set [1] (setting [4]), the collision cross section was found to be 155.04 Å². Moreover, the “reversed-phase LC retention time” value in data set [2] (setting [4]) amounted to 15.3 min.
On to `COc1ccc2c(c1)[nH]c1c(C)nccc12` [Harmine], for which the collision cross section is 145.04 Å² in data set [1] (setting [3]) and 145.84 Å² in data set [1] (setting [4]). The “reversed-phase LC retention time” value in data set [2] (setting [3]) was 9.71 min; in data set [2] (setting [4]), 13.5 min.
With `CN(C)C(=O)Nc1ccc(Oc2ccc(Cl)cc2)cc1` [Chloroxuron], the collision cross section in data set [1] (setting [3]) is recorded as 175 Å². Moreover, the “reversed-phase LC retention time” value in data set [2] (setting [3]) amounted to 14.6 min.
In data set [1] (setting [4]), `CC1=CC(=O)NS(=O)(=O)O1` [Acesulfame] came in with a collision cross section of 122.01 Å². In addition, the “reversed-phase LC retention time” value in data set [2] (setting [4]) stood at 2.26 min.
`CCCCOC(=O)CC(O)(CC(=O)OCCCC)C(=O)OCCCC` [Tri-n-butyl citrate] returned a collision cross section in data set [1] (setting [3]) of 203.87 Å². The “reversed-phase LC retention time” value in data set [2] (setting [3]) was found to be 16.5 min.
Molecule `O=P(O)(OCCC(F)(F)C(F)(F)C(F)(F)C(F)(F)C(F)(F)C(F)(F)F)OCCC(F)(F)C(F)(F)C(F)(F)C(F)(F)C(F)(F)C(F)(F)F` [6:2 Fluorotelomer phosphate diester] registered a collision cross section in data set [1] (setting [4]) of 232.73 Å². Further, the “reversed-phase LC retention time” value in data set [2] (setting [4]) came to 17.6 min.
Molecule `CCCCCCCCCCCCCCCC[N+](C)(C)C` [Hexadecyltrimethylammonium] yielded a collision cross section in data set [1] (setting [5]) of 196.39 Å². Moreover, the “reversed-phase LC retention time” value in data set [2] (setting [5]) was found to be 17.4 min.
With `O=C(Nc1ccccc1)NC1CCCCC1` [1-Cyclohexyl-3-phenylurea], in data set [1] (setting [3]), the collision cross section is 154.52 Å². Further, in data set [2] (setting [3]), the “reversed-phase LC retention time” value was 13.2 min.
The molecule `CC[N+](CC)(CC)CC` [Tetraethylammonium] registered a collision cross section in data set [1] (setting [5]) of 123.33 Å². Also, the “reversed-phase LC retention time” value in data set [2] (setting [5]) was 1.03 min.
In the case of `COc1ccc(Cl)cc1C(=O)NCCc1ccc(S(=O)(=O)NC(=O)NC2CCCCC2)cc1` [Glibenclamide], the collision cross section is reported as 208.58 Å² in data set [1] (setting [3]) and 214.7 Å² in data set [1] (setting [4]). Besides, the “reversed-phase LC retention time” value worked out at 14.8 min in data set [2] (setting [3]) and 14 min in data set [2] (setting [4]).
For the molecule `Cc1cccc(C(=O)O)c1N(Cn1cccn1)C(=O)C(=O)O` [Metazachlor BH479-12], the collision cross section in data set [1] (setting [3]) is 160.33 Å². For the same molecule, the “reversed-phase LC retention time” value in data set [2] (setting [3]) was 8.13 min.
The matching figures for `CC(CN1c2ccccc2Sc2ccccc21)N(C)C` (stereo not drawn) [Promethazin]: 164.06 Å² and 12.3 min.
In data set [1] (setting [4]), `Oc1ccc2c(c1)[nH]c1ccccc12` [2-Hydroxycarbazole] yielded a collision cross section of 138.96 Å². For the same molecule, the “reversed-phase LC retention time” value in data set [2] (setting [4]) amounted to 12.4 min.
Turning to `c1ccc2c(c1)[nH]c1cnccc12` [Norharmane], the values for the collision cross section in data set [1] (setting [3]) and in data set [1] (setting [4]) were 132.84 Å² and 129.43 Å², respectively. Further, the results for the “reversed-phase LC retention time” value in data set [2] (setting [3]) and in data set [2] (setting [4]) were 8.24 min and 12.9 min, respectively.
In the case of `CCCOP(=O)(OCCC)OCCC` [Tripropyl phosphate], the collision cross section in data set [1] (setting [3]) is listed as 149 Å². Besides, the “reversed-phase LC retention time” value in data set [2] (setting [3]) was 14.2 min.
Turning to `C[C@]12CCC(=O)C=C1CC[C@@H]1[C@@H]2[C@@H](O)C[C@]2(C)C(=O)CC[C@@H]12` [4-Androsten-11beta-ol-3,17-dione], in data set [1] (setting [3]), the collision cross section came to 174.44 Å². Further, the “reversed-phase LC retention time” value in data set [2] (setting [3]) turned out to be 12.8 min.
Regarding `O=c1oc2cc(O)ccc2c2oc3cc(O)ccc3c12` [Coumestrol], the values for the collision cross section in data set [1] (setting [3]) and in data set [1] (setting [4]) were 156.86 Å² and 156.09 Å², respectively. In addition, the “reversed-phase LC retention time” value worked out at 12.5 min in data set [2] (setting [3]) and 11.7 min in data set [2] (setting [4]).
`Nc1ccc(/C=C/c2ccc(N)cc2S(=O)(=O)O)c(S(=O)(=O)O)c1` [4,4'-Diaminostilbene-2,2'-disulfonic acid]: the collision cross section in data set [1] (setting [4]) worked out at 178.47 Å². In addition, the “reversed-phase LC retention time” value in data set [2] (setting [4]) amounted to 0.97 min.
`Oc1ccccc1-c1ccccc1` [2-Phenylphenol]: the collision cross section in data set [1] (setting [4]) is on record as 134.42 Å². In addition, in data set [2] (setting [4]), the “reversed-phase LC retention time” value turned out to be 13.9 min.
For the molecule `Cc1cc(C)nc(NS(=O)(=O)c2ccc(N)cc2)n1` [Sulfamethazine], the results for the collision cross section in data set [1] (setting [3]) and in data set [1] (setting [4]) were 163.66 Å² and 165.06 Å², respectively. Also, the “reversed-phase LC retention time” value came out at 7.95 min in data set [2] (setting [3]) and 7.46 min in data set [2] (setting [4]).
